In patent US11512128B2, “VEGF/DLL4 binding agents and uses thereof” (MEREO BIOPHARMA 5, INC., priority 2011, dated 2022):

B1: 219R45-MB-21R83: anti-VEGF/anti-DLL4 monovalent/bispecific antibody, heavy chains SEQ ID NO:7 and 62, light chains SEQ ID NO:8 (antibody)
heavy 1: QVQLVQSGAEVKKPGASVKVSCKASGYTFTNYWMHWVRQAPGQGLEWMGDINPSNGRTSYKEKFKRRVTLSVDKSSSTAYMELSSLRSEDTAVYFCTIHYDDKYYPLMDYWGQGTLVTVSSASTKGPSVFPLAPCSRSTSESTAALGCLVKDYFPEPVTVSWNSGALTSGVHTFPAVLQSSGLYSLSSVVTVPSSNFGTQTYTCNVDHKPSNTKVDKTVERKCCVECPPCPAPPVAGPSVFLFPPKPKDTLMISRTPEVTCVVVDVSHEDPEVQFNWYVDGVEVHNAKTKPREEQFNSTFRVVSVLTVVHQDWLNGKEYKCKVSNKGLPAPIEKTISKTKGQPREPQVYTLPPSREKMTKNQVSLTCLVKGFYPSDIAVEWESNGQPENNYKTTPPMLKSDGSFFLYSKLTVDKSRWQQGNVFSCSVMHEALHNHYTQKSLSLSPGK
heavy 2: QVQLVQSGAEVKKPGASVKISCKASGYSFTAYYIHWVKQAPGQGLEWIGYISNYNRATNYNQKFKGRVTFTTDTSTSTAYMELRSLRSDDTAVYYCARDYDYDVGMDYWGQGTLVTVSSASTKGPSVFPLAPCSRSTSESTAALGCLVKDYFPEPVTVSWNSGALTSGVHTFPAVLQSSGLYSLSSVVTVPSSNFGTQTYTCNVDHKPSNTKVDKTVERKCCVECPPCPAPPVAGPSVFLFPPKPKDTLMISRTPEVTCVVVDVSHEDPEVQFNWYVDGVEVHNAKTKPREEQFNSTFRVVSVLTVVHQDWLNGKEYKCKVSNKGLPAPIEKTISKTKGQPREPQVYTLPPSREEMTKNQVSLTCLVEGFYPSDIAVEWESNGQPENNYKTTPPMLDSDGSFFLYSELTVDKSRWQQGNVFSCSVMHEALHNHYTQKSLSLSPGK
light: DIVMTQSPDSLAVSLGERATISCRASESVDNYGISFMKWFQQKPGQPPKLLIYAASNQGSGVPDRFSGSGSGTDFTLTISSLQAEDVAVYYCQQSKEVPWTFGGGTKVEIKRTVAAPSVIFPPSDEQLKSGTASVVCLLNNFYPREAKVQWKVDNALQSGNSQESVTEQDSKDSTYSLSSTLTLSKADYEKHKVYACEVTHQGLSSPVTKSFNRGEC
modifications: 21R79 Heavy chain without predicted signal sequence; 21R83 Heavy chain without signal sequence; Light chain without predicted signal sequence

Legend:
[1] = test system: OMP-PN8 pancreatic tumor cells; assay: Tumorigenicity of OMP-PN8 pancreatic tumor cells after treatment (serial transplantation); assay type: in vivo, NOD/SCID mice; conditions: 90 cells from treated tumors transplanted, day 55, no treatment; 21M18, bevacizumab 15 mg/kg, bispecifics 30 mg/kg, gemcitabine 70 mg/kg, four weeks
Description: FIG. 6. Tumorigenicity of pancreatic tumor cells after treatment with anti-VEGF/anti-DLL4 bispecific antibodies. OMP-PN8 tumor cells from mice treated with control antibody, anti-hDLL4 antibody 21M18, anti-VEGF antibody bevacizumab, or anti-VEGF/anti-DLL4 bispecific antibodies 219R45-MB-21M18 or 219R45-MB-21R79 with or without gemcitabine were processed to single cell suspensions, and serially transplanted into mice. 90 cells from each treatment group were injected subcutaneously into NOD/SCID mice. Tumors were allowed to grow with no treatment. Data is shown as tumor volume (mm^3) on day 55. Tumor frequency is shown as number of tumors over total number of mice injected in each group.
Mice bearing OMP-PN8 pancreatic tumors were treated with control antibody (15 mg/kg), anti-hDLL4 antibody 21M18 (15 mg/kg), anti-VEGF antibody bevacizumab (15 mg/kg), or anti-VEGF/anti-DLL4 bispecific antibodies 219R45-MB-21M18 or 219R45-MB-21R79 (30 mg/kg) with or without gemcitabine (70 mg/kg). Following four weeks of treatment, tumors were harvested, processed to single cell suspensions and the human tumor cells were purified by immunomagnetic depletion of murine cells. 90 human tumor cells from each treatment group were transferred to a new cohort of mice (n=10 mice/group). Tumors were allowed to grow for 55 days without any treatment and tumor volumes were measured with electronic calipers.

OMP-C8 colon tumor cells = assay: Tumor growth in human skin graft model; assay type: in vivo, NOD-SCID mice; conditions: 25 mg/kg intraperitoneally once a week
Description: FIG. 5. Inhibition of colon tumor growth in vivo by an anti-VEGF/anti-DLL4 bispecific antibody. OMP-C8 colon tumor cells were injected subcutaneously into a human skin graft in NOD/SCID mice. Mice were treated with control antibody (-▪-), anti-hDLL4 antibody 21M18 (-▴-), anti-VEGF antibody bevacizumab (-∘-), or anti-VEGF/anti-DLL4 bispecific antibody 219R45-MB-21M18 (-▾-). Data is shown as tumor volume (photons/sec) over days post-treatment. Antibodies were administered intraperitoneally at a dose of 25 mg/kg once a week.
A human skin graft model has been reported which comprises a human skin graft and human tumor cells. A human skin graft is established and then human tumor cells are implanted into the skin graft, allowing the tumor cells to grow in an environment with human stroma and vasculature (Tahtis et al., 2003, Mol. Cancer Ther. 2:[…]). Human skin samples were obtained from neonatal foreskin tissue and grafted onto the lateral flank of NOD-SCID mice. After establishment of the skin graft, luciferase-labeled OMP-C8 colon tumor cells (20,000 cells) were injected intradermally into the human skin. Tumor growth was monitored by bioluminescence imaging using an IVIS imaging system (Caliper Life Sciences, Mountain View, Calif.). Tumors were allowed to grow until they reached 1.2×10^6 photons per second. Tumor-bearing mice (n=6 mice/group) were randomized and treated with control Ab, anti-hDLL4 antibody 21M18, anti-VEGF antibody bevacizumab, or anti-VEGF/anti-DLL4 bispecific antibody 219R45-MB-21M18. Animals were treated once a week and antibodies were administered intraperitoneally at a dose of 25 mg/kg. Tumor growth was monitored by bioluminescence imaging on the indicated days.

OMP-C8 colon tumor [2] = assay: Tumorigenicity of OMP-C8 colon tumors after treatment (serial transplantation); assay type: in vivo, NOD/SCID mice; conditions: 150 cells from treated tumors transplanted, day 68; without irinotecan combination
Description: FIG. 10. Tumorigenicity of […] colon tumor cells after treatment with anti-VEGF/anti-DLL4 bispecific antibodies. Tumors from mice treated with control antibody, anti-hDLL4 antibody 21M18, anti-VEGF antibody bevacizumab, a combination of 21M18 and bevacizumab, or anti-VEGF/anti-DLL4 bispecific antibodies 219R45-MB-21M18 or 219R45-MB-21R79 with or without irinotecan were processed to single cell suspensions, and serially transplanted into mice. 150 cells from each treatment group were injected subcutaneously into NOD/SCID mice. Tumors were allowed to grow with no treatment. Data are shown as tumor volume (mm^3) on day 68.
Single cell suspensions of OMP-C8 colon tumor xenografts (20,000 cells) were injected subcutaneously into the flanks of 6-8 week old NOD/SCID mice. Tumors were allowed to grow for 33 days until they reached an average volume of 300 mm^3. The mice were randomized (n=5 per group) and treated with anti-DLL4 antibody 21M18, anti-VEGF antibody bevacizumab, a combination of antibodies 21M18 and bevacizumab, anti-VEGF/anti-DLL4 bispecific antibody 219R45-MB-21M18, anti-VEGF/anti-DLL4 bispecific antibody 219R45-MB-21R79, or control antibody, either in combination with irinotecan or without irinotecan. Antibodies and irinotecan were dosed weekly by injection into the intraperitoneal cavity. Antibodies 21M18 and bevacizumab were dosed at 7.5 mg/kg, bispecific antibodies 219R45-MB-21M18 and 219R45-MB-21R79 were dosed at 15 mg/kg, and irinotecan was dosed at 45 mg/kg. Tumors were harvested after 4 weeks, processed into single cell suspensions, and the human tumor cells were isolated. 150 tumor cells from each experimental group were injected subcutaneously into a new cohort of mice (n=10 per group) and tumors were allowed to grow without treatment. Tumor growth was monitored and tumor volumes were measured with electronic calipers.

OMP-C8 colon tumor [3] = assay: OMP-C8 colon tumor growth in vivo; set-up: species or system NOD/SCID mice
Description: FIGS. 11A and 11B. Inhibition of colon tumor growth in vivo by anti-VEGF/anti-DLL4 bispecific antibodies. OMP-C8 colon tumor cells were injected subcutaneously into NOD/SCID mice. Mice were treated with control antibody (-▪-), anti-VEGF antibody bevacizumab (-▴-), or anti-VEGF/anti-DLL4 bispecific antibodies 219R45-MB-21M18 (-⋄-), 219R45-MB-21R75 (-●-), 219R45-MB-21R79 (-∘-), or 219R45-MB-21R83 (-▾-). Mice were treated with antibodies as single agents (FIG. 11A) or in combination with irinotecan (FIG. 11B). Antibodies were administered intraperitoneally at a dose of 15 mg/kg once a week and irinotecan at a dose of 7.5 mg/kg one a week. Data are shown as tumor volume (mm^3) over days post-treatment.
Single cell suspensions of OMP-C8 colon tumor xenografts (50,000 cells) were injected subcutaneously into the flanks of 6-8 week old NOD/SCID mice. Tumors were allowed to grow for 21 days until they reached an average volume of 80 mm^3. The mice were randomized (n=8 per group) and treated with anti-DLL4 antibody 21M18, anti-VEGF antibody bevacizumab, anti-VEGF/anti-DLL4 bispecific antibodies 219R45-MB-21M18, 219R45-MB-21R75, 219R45-MB-21R79, 219R45-MB-21R83, or control antibody, either alone or in combination with irinotecan. Antibodies and irinotecan were dosed weekly by injection into the intraperitoneal cavity. Bevacizumab and bispecific antibodies 219R45-MB-21M18, 219R45-MB-21R75, 219R45-MB-21R79, and 219R45-MB-21R83 were dosed at 15 mg/kg, and irinotecan was dosed at 7.5 mg/kg. Tumor growth was monitored and tumor volumes were measured with electronic calipers at the indicated time points. Data are expressed as mean±S.E.M.
Following the treatment phase, tumor sections were prepared and analyzed by hematoxylin and eosin (H&E) staining. […] This is characteristic of highly necrotic tumor tissue.

Row | Molecule | tumor growth frequency (mice with tumors) [1] | inhibition of tumor growth (bioluminescence) (OMP-C8 colon tumor cells) | tumor growth frequency, single agents (OMP-C8 colon tumor [2]) | inhibition of tumor growth in combination with irinotecan (OMP-C8 colon tumor [3]; antibody 15 mg/kg, irinotecan 7.5 mg/kg weekly ip) | H&E staining of tumor sections after treatment (OMP-C8 colon tumor [3]; in combination with irinotecan)
1 | Nc1ccn([C@@H]2O[C@H](CO)[C@@H](O)C2(F)F)c(=O)n1 [gemcitabine, reference compound] | 10 out of 10 | – | – | – | –
2 | bevacizumab [reference compound] | 10 out of 10 | inhibited tumor growth | had no effect on tumor growth frequency | – | –
3 | CCc1c2c(nc3ccc(OC(=O)N4CCC(N5CCCCC5)CC4)cc13)-c1cc3c(c(=O)n1C2)COC(=O)[C@]3(O)CC [irinotecan, reference compound] | – | – | reduced tumor growth frequency | – | –
4 | B1 | – | – | – | greatest inhibition of tumor growth | dark pink staining regions providing evidence of extensive calcification
